In ChEMBL document CHEMBL1152790, “Synthesis and pharmacological characterization of beta2-adrenergic agonist enantiomers: zilpaterol” (J Med Chem, 2009):
Counter-ions that a name gives are not always drawn. Active and inactive are the calls of the source. The calls are words filed in the database; no cut-off is given here.

Legend:
Mu-type opioid receptor [1] = biological target: T1, Mu-type opioid receptor (Homo sapiens, UniProt P35372); assay: Agonist activity at human recombinant mu opioid receptor expressed in AequoScreen cells assessed as aequorin-derived receptor-mediated changes in intracellular calcium levels; format: functional, cell-based
Mu-type opioid receptor [2] = biological target: T1, Mu-type opioid receptor; assay: Antagonist activity at human recombinant mu opioid receptor expressed in AequoScreen cells assessed as aequorin-derived receptor-mediated changes in intracellular calcium levels; format: functional, cell-based
[3] = biological target: Beta-2 adrenergic receptor (Cavia porcellus, UniProt Q8K4Z4)
Description: Agonist activity at adrenergic beta2 receptor in guinea pig trachea assessed as relaxation of carbachol-induced tissue contraction

Mu-type opioid receptor [4] = biological target: T1, Mu-type opioid receptor; assay: Displacement of [3H]DAMGO from human recombinant mu opioid receptor expressed in HEK293 cells by scintillation counting; format: cell-based

T1 sequence (P35372 whole entry): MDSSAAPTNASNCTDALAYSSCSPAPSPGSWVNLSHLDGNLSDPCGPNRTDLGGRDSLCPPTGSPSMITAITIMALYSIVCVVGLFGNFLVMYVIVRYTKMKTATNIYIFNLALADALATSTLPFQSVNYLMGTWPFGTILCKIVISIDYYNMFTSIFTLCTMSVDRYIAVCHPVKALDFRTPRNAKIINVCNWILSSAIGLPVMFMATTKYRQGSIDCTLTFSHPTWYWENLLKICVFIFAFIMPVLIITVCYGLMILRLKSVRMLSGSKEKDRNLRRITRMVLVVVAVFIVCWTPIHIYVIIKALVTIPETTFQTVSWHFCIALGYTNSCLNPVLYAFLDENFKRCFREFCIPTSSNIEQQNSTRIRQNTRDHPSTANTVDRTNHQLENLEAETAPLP
Beta-2 adrenergic receptor, sequence (Q8K4Z4 whole entry): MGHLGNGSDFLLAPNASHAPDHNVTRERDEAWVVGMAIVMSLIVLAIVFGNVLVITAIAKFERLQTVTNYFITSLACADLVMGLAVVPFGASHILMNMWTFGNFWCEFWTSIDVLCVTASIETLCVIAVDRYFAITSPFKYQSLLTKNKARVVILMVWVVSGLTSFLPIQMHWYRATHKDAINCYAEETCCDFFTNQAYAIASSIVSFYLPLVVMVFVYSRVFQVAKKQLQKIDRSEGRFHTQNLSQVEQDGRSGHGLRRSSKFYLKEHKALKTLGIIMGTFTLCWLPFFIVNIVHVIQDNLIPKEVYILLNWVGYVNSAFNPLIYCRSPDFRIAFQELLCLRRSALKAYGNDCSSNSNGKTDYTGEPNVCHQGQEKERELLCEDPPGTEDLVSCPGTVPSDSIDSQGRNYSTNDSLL

| Structure (SMILES) | Activity (Mu-type opioid receptor [1]) | Emax (Mu-type opioid receptor [2]) [%] | IC50 (Mu-type opioid receptor [2]) [µM] | also measured |
| --- | --- | --- | --- | --- |
| CC(C)N[C@H]1CCn2c(=O)[nH]c3cccc(c32)[C@@H]1O | inactive | 96 | 140 | – |
| CC(C)N[C@@H]1CCn2c(=O)[nH]c3cccc(c32)[C@H]1O | inactive | – | – | – |
| CC(C)N[C@@H]1CCn2c(=O)[nH]c3cccc(c32)[C@H]1O (racemic) | inactive | 93 | – | – |
| CC(C)(C)NCC(O)c1cc(Cl)c(N)c(Cl)c1 (racemic) [CLENBUTEROL] | – | – | – | EC50 [3]: 0.013 µM |
| CC(C)N[C@@H]1CCn2c(=O)[nH]c3cccc(c32)[C@H]1O (racemic) [ZILPATEROL HYDROCHLORIDE] | – | – | 300 | IC50 (Mu-type opioid receptor [4]): 31 µM; Ki (Mu-type opioid receptor [4]): 13 µM |
| CC(C)N[C@@H]1CCn2c(=O)[nH]c3cccc(c32)[C@H]1O [ZILPATEROL HYDROCHLORIDE] | – | – | > 1000 | – |
